PubChem BioAssay AID248 (DTP/NCI, 2004)
Where “and” joins values, the source holds several entries; their conditions need not be identical. Equal entries are not always repeated. Toxic doses and inconclusive results are not listed. No stated cut-off is given here; in the data, active means T/C of 150% or more; inactive means T/C below 125%.

Tested on: L1210 leukemia ip in BDF1 mice, survival T/C
Experiment: NCI In Vivo Anticancer Drug Screen. Data for tumor model L1210 Leukemia (intraperitoneal) in B6D2F1 (BDF1) mice
Settings: endpoint: mean survival time, higher = longer survival
Procedure, shortened: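 In this screen, tumor-bearing mice given compound are compared to those given vehicle, and their survival values are reported as a treated-to-control quotient.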

[1] = dose: 100.0 mg/kg/injection, schedule: Q01DX009 (ip), vehicle: gum acacia
[2] = dose: 200.0 mg/kg/injection, schedule: Q01DX009 (ip), vehicle: gum acacia
[3] = dose: 400.0 mg/kg/injection, schedule: Q01DX009 (ip), vehicle: gum acacia
[4] = dose: 100.0 mg/kg/injection, schedule: Q01DX001 (ip), vehicle: carboxymethylcellulose (CMC)
[5] = dose: 200.0 mg/kg/injection, schedule: Q01DX001 (ip), vehicle: carboxymethylcellulose (CMC)
[6] = dose: 400.0 mg/kg/injection, schedule: Q01DX001 (ip), vehicle: carboxymethylcellulose (CMC)
[7] = dose: 100.0 mg/kg/injection, schedule: Q04DX002 (ip), vehicle: saline with Tween-80
[8] = dose: 200.0 mg/kg/injection, schedule: Q04DX002 (ip), vehicle: saline with Tween-80
[9] = dose: 400.0 mg/kg/injection, schedule: Q04DX002 (ip), vehicle: saline with Tween-80
[10] = dose: 100.0 mg/kg/injection, schedule: Q04DX003 (ip), vehicle: saline with Tween-80
[11] = dose: 200.0 mg/kg/injection, schedule: Q04DX003 (ip), vehicle: saline with Tween-80
[12] = dose: 100.0 mg/kg/injection, schedule: Q01DX009 (ip), vehicle: saline with Tween-80
[13] = dose: 200.0 mg/kg/injection, schedule: Q01DX009 (ip), vehicle: saline with Tween-80
[14] = dose: 400.0 mg/kg/injection, schedule: Q01DX009 (ip), vehicle: saline with Tween-80
[15] = dose: 400.0 mg/kg/injection, schedule: Q04DX003 (ip), vehicle: saline with Tween-80
[16] = dose: 100.0 mg/kg/injection, schedule: Q04DX003 (ip), vehicle: Klucel (hydroxypropylcellulose) (HPC)
[17] = dose: 200.0 mg/kg/injection, schedule: Q04DX003 (ip), vehicle: Klucel (hydroxypropylcellulose) (HPC)
[18] = dose: 400.0 mg/kg/injection, schedule: Q04DX003 (ip), vehicle: Klucel (hydroxypropylcellulose) (HPC)

Measured: T/C

CCCCCCCCCCCC(=O)Nc1ccc(O)cc1
inactive: dose: 25.0 mg/kg/injection, schedule: Q01DX009 (ip), vehicle: gum acacia 93 % of control | dose: 50.0 mg/kg/injection, schedule: Q01DX009 (ip), vehicle: gum acacia 93 % of control | [1] 96 % of control | dose: 100.0 mg/kg/injection, schedule: Q04DX003 (ip), vehicle: gum acacia 88 % of control | [2] 92 % of control | dose: 200.0 mg/kg/injection, schedule: Q04DX003 (ip), vehicle: gum acacia 86 % of control | [3] 92 % of control | dose: 400.0 mg/kg/injection, schedule: Q04DX003 (ip), vehicle: gum acacia 95 % of control

CCCCNN
inactive: dose: 75.0 mg/kg/injection, schedule: Q01DX001 (ip), vehicle: other 96 % of control | dose: 150.0 mg/kg/injection, schedule: Q01DX001 (ip), vehicle: other 113 % of control

O=C1c2cc([N+](=O)[O-])ccc2-c2cc(Cl)c([N+](=O)[O-])cc21
inactive: dose: 50.0 mg/kg/injection, schedule: Q01DX001 (ip), vehicle: carboxymethylcellulose (CMC) 102 % of control | [4] 91 % of control | [5] 91 % of control | [6] 93 % of control

N#CC(CCCc1cccc(N2CN=C(N)N=C2N)c1)c1ccccc1 (centres undefined)
inactive: dose: 50.0 mg/kg/injection, schedule: Q01DX001 (ip), vehicle: saline 96 % of control

CC(C)COC(c1ccc2c(c1)OCO2)C(C)Br (centres undefined)
inactive: [7] 96 % of control | [8] 101 % of control | [9] 107 % of control

O=C(Nc1ccccc1C(F)(F)F)OCC1CCCO1 (centres undefined)
inactive: [1] 109 % of control | [2] 95 % of control | [3] 100 % of control

O=C(/C(=C\c1ccccc1)CN1CCOCC1)c1ccc(Br)cc1
inactive: dose: 12.5 mg/kg/injection, schedule: Q01DX009 (ip), vehicle: Klucel (hydroxypropylcellulose) (HPC) 96 % of control | dose: 25.0 mg/kg/injection, schedule: Q01DX009 (ip), vehicle: Klucel (hydroxypropylcellulose) (HPC) 93 % of control | dose: 50.0 mg/kg/injection, schedule: Q01DX009 (ip), vehicle: Klucel (hydroxypropylcellulose) (HPC) 91 % of control | [10] 87 % of control | [11] 93 % of control

CCCCCC(C)O[Si](C)c1cccc2ccccc12 (centres undefined)
inactive: [12] 98 % of control | [10] 92 % of control | [13] 93 % of control | [11] 92 % of control | [14] 104 % of control | [15] 101 % of control

COc1ccc(/C=C(/C)[N+](=O)[O-])cc1OC
inactive: dose: 50.0 mg/kg/injection, schedule: Q01DX001 (ip), vehicle: Klucel (hydroxypropylcellulose) (HPC) 98 % of control | dose: 50.0 mg/kg/injection, schedule: Q01DX009 (ip), vehicle: saline with Tween-80 91 % of control | dose: 100.0 mg/kg/injection, schedule: Q01DX001 (ip), vehicle: Klucel (hydroxypropylcellulose) (HPC) 94 % of control | dose: 100.0 mg/kg/injection, schedule: Q01DX001 (ip), vehicle: saline 93 % of control | [12] 115 % of control | [16] 97 % of control | dose: 200.0 mg/kg/injection, schedule: Q01DX001 (ip), vehicle: Klucel (hydroxypropylcellulose) (HPC) 103 % of control | [13] 100 % of control | [17] 102 % of control | dose: 400.0 mg/kg/injection, schedule: Q01DX001 (ip), vehicle: saline 98 % of control | [18] 97 % of control

CC(C)/C=N/NC(=O)CCCCCCCCC(=O)N/N=C/C(C)C
inactive: dose: 100.0 mg/kg/injection, schedule: Q01DX001 (ip), vehicle: saline with Tween-80 97 % of control | [12] 105 % of control and 106 % of control | [7] 97 % of control | [10] 111 % of control | dose: 200.0 mg/kg/injection, schedule: Q01DX001 (ip), vehicle: saline with Tween-80 92 % of control | [13] 100 % of control and 108 % of control | [8] 97 % of control | [11] 110 % of control | dose: 400.0 mg/kg/injection, schedule: Q01DX001 (ip), vehicle: saline with Tween-80 97 % of control | [14] 93 % of control and 108 % of control | [9] 94 % of control and 95 % of control | [15] 101 % of control

Cc1c(C(=O)c2ccc3c(c2)OCO3)ccc2c1OCO2
inactive: [4] 100 % of control | [5] 100 % of control | [6] 96 % of control

COc1cccc(/C=c2\[nH]c(=O)/c(=C/c3cccc(OC)c3OC)[nH]c2=O)c1OC
inactive: dose: 100.0 mg/kg/injection, schedule: Q01DX009 (ip), vehicle: Klucel (hydroxypropylcellulose) (HPC) 94 % of control | [16] 88 % of control | dose: 200.0 mg/kg/injection, schedule: Q01DX009 (ip), vehicle: Klucel (hydroxypropylcellulose) (HPC) 87 % of control | [17] 91 % of control | dose: 400.0 mg/kg/injection, schedule: Q01DX009 (ip), vehicle: Klucel (hydroxypropylcellulose) (HPC) 96 % of control | [18] 91 % of control

CCCCC[CH2][Sn]([CH2]CCCCC)([CH2]CCCCC)[NH]S(=O)(=O)c1ccc(C)cc1
inactive: [7] 87 % of control | [8] 105 % of control | [9] 94 % of control

CC(C)N(C(=S)[S-])C(C)C.CC(C)N(C(=S)[S-])C(C)C.[Zn]
inactive: dose: 37.5 mg/kg/injection, schedule: Q01DX009 (ip), vehicle: saline 89 % of control | dose: 75.0 mg/kg/injection, schedule: Q01DX001 (ip), vehicle: acetone 97 % of control | dose: 75.0 mg/kg/injection, schedule: Q01DX009 (ip), vehicle: saline 90 % of control | dose: 75.0 mg/kg/injection, schedule: Q04DX003 (ip), vehicle: saline 101 % of control | dose: 150.0 mg/kg/injection, schedule: Q01DX001 (ip), vehicle: acetone 92 % of control | dose: 150.0 mg/kg/injection, schedule: Q01DX009 (ip), vehicle: saline 86 % of control | dose: 150.0 mg/kg/injection, schedule: Q04DX003 (ip), vehicle: saline 90 % of control | dose: 300.0 mg/kg/injection, schedule: Q01DX001 (ip), vehicle: acetone 93 % of control | dose: 300.0 mg/kg/injection, schedule: Q04DX003 (ip), vehicle: saline 86 % of control

c1cc(N2CCOCC2)cc(NC2CCCCC2)n1
inactive: dose: 5.0 mg/kg/injection, schedule: Q01DX001 (ip), vehicle: saline 95 % of control | dose: 10.0 mg/kg/injection, schedule: Q01DX001 (ip), vehicle: saline 104 % of control | dose: 20.0 mg/kg/injection, schedule: Q01DX001 (ip), vehicle: saline 97 % of control | dose: 40.0 mg/kg/injection, schedule: Q01DX001 (ip), vehicle: saline 103 % of control | dose: 80.0 mg/kg/injection, schedule: Q01DX001 (ip), vehicle: saline 98 % of control

CC(C)OCCSP(SCCOC(C)C)SCCOC(C)C
inactive: dose: 25.0 mg/kg/injection, schedule: Q04DX003 (ip), vehicle: saline with Tween-80 96 % of control | dose: 50.0 mg/kg/injection, schedule: Q04DX003 (ip), vehicle: saline with Tween-80 107 % of control | [10] 96 % of control
